Like-named read-outs stand apart in the source and are kept apart here.

This assay deals with human NAMPT (Homo sapiens, UniProt P43490). The assay is described as follows: Human recombinant enzyme assay (NMN fluorescence biochemical assay, activation of NAMPT). In a few lines:
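Activation of recombinant human NAMPT (6 nM) with 2.5 mM ATP, 20 μM PRPP and 150 μM nicotinamide in 50 mM HEPES pH 7.2, 1 mM DTT, 1 mM CHAPS, 50 mM NaCl, 100 mM MgCl2; 60 min, ambient temperature. NMN formed was derivatized with acetophenone/KOH/formic acid, fluorescence read at 355/460 nm after 40 min.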

Where [1] appears, read: Table A, human recombinant NAMPT, NMN formation, 60 min.
The mark [2] stands for this setting: Table A, human recombinant NAMPT, NMN formation, 60 min, read-out: EC50 Human.

human NAMPT, sequence (P43490 whole entry): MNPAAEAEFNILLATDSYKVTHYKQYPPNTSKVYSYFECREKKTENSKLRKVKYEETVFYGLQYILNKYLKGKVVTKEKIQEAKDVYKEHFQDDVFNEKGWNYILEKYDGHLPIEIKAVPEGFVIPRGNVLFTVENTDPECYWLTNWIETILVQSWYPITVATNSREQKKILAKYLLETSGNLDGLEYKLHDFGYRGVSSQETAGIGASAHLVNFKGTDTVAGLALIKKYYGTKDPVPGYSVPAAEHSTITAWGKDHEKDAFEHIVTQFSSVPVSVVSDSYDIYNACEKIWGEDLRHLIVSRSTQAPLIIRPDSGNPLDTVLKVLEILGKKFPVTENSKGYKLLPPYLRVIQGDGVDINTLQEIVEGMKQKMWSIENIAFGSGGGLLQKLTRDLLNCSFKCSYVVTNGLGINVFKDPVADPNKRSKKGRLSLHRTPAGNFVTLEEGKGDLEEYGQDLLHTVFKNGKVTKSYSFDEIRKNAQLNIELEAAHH

Take `O=C(CCCCCNC(=O)NCc1ccc(Cl)cc1)Nc1cccc(F)c1` [Compound 285, 6-(3-(4-chlorobenzyl)ureido)-N-(3-fluorophenyl)hexanamide]: the “AC1.4 Human” value under setting [1] amounted to 3.5 µM. The EC50 (in general, the concentration giving half of the maximal effect) under setting [2] came out at 9.4 µM.

In the case of `COc1ccc(CNC(=O)NC2CC3(C2)CN(C(=O)c2ccc(C(C)(C)O)cc2)C3)cc1` [Compound 157, 1-(2-(4-(2-hydroxypropan-2-yl)benzoyl)-2-azaspiro[3.3]heptan-6-yl)-3-(4-methoxybenzyl)urea], the “AC1.4 Human” value under setting [1] stood at 4.1 µM. Further, the 50% effective concentration (EC50) under setting [2] stood at 47.6 µM.

Consider `COc1ccc(CNC(=O)NC2CC3(C2)CC(C(=O)NCc2ccccc2)C3)cc1` (centres unmarked) [Compound 68, N-benzyl-6-(3-(4-methoxybenzyl)ureido)spiro[3.3]heptane-2-carboxamide], for which the “AC1.4 Human” value under setting [1] is 5.1 µM. Further, the concentration giving a half-maximal response (EC50) under setting [2] was 45.2 µM.

Turning to `O=C(NCc1ccc(Cl)cc1)NC1CC2(CC(CC(=O)N3CCCC3)C2)C1` (centres unmarked) [Compound 236, 1-(4-chlorobenzyl)-3-(6-(2-oxo-2-(pyrrolidin-1-yl)ethyl)spiro[3.3]heptan-2-yl)urea], the “AC1.4 Human” value under setting [1] was found to be 3.6 µM. In addition, the EC50 under setting [2] stood at 5.7 µM.

Consider `Cc1ccccc1C(=O)NC1CC2(CC(NC(=O)NCc3ccc(Cl)cc3)C2)C1` (centres unmarked) [Compound 193, N-(6-(3-(4-chlorobenzyl)ureido)spiro[3.3]heptan-2-yl)-2-methylbenzamide], for which the “AC1.4 Human” value under setting [1] was determined as 3.6 µM. In addition, the EC50 under setting [2] came to 14.6 µM.

Turning to `COc1ccc(CNC(=O)NC2CC3(C2)CC(C(=O)N2CCC2c2ccccc2)C3)cc1` (centres unmarked) [Compound 48, 1-(4-methoxybenzyl)-3-(6-(2-phenylazetidine-1-carbonyl)spiro[3.3]heptan-2-yl)urea], the “AC1.4 Human” value under setting [1] turned out to be 4.7 µM. Further, the concentration for a half-maximal effect (EC50) under setting [2] came out at 52.1 µM.

In the case of `COc1ccc(CNC(=O)NC2CC3(C2)CC(C(=O)N2CCN(C)CC2CO)C3)cc1` (centres unmarked) [Compound 113, 1-(6-(2-(hydroxymethyl)-4-methylpiperazine-1-carbonyl)spiro[3.3]heptan-2-yl)-3-(4-methoxybenzyl)urea], under setting [1], the “AC1.4 Human” value worked out at 3.8 µM. For the same compound, under setting [2], the EC50 was determined as 51.6 µM.

`COc1ccc(CNC(=O)NC2CC3(C2)CC(C(=O)N[C@H](C)c2ccccc2)C3)cc1` (stereo partly drawn) [Compound 45, (R)-6-(3-(4-methoxybenzyl)ureido)-N-(1-phenylethyl)spiro[3.3]heptane-2-carboxamide]: the EC50 came out at 51.7 µM. Besides, the “AC1.4 Human” value under setting [1] came to 6.6 µM.

With `CN1CC(C(=O)N2CCC(CCCCNC(=O)NCc3ccc(Cl)cc3)CC2)CC1=O` (centres unmarked) [Compound 304, 1-(4-chlorobenzyl)-3-(4-(1-(1-methyl-5-oxopyrrolidine-3-carbonyl)piperidin-4-yl)butyl)urea], under setting [1], the “AC1.4 Human” value stood at 1.7 µM. Also, the EC50 under setting [2] is 10.6 µM.

Turning to `O=C(NCc1ccc(Cl)cc1)NC1CC2(CC(Cc3cnccn3)C2)C1` (centres unmarked) [Compound 331, 1-(4-chlorobenzyl)-3-(6-(pyrazin-2-ylmethyl)spiro[3.3]heptan-2-yl)urea], the “AC1.4 Human” value under setting [1] worked out at 2.2 µM. Under setting [2], the EC50 came to 1.3 µM.

Take `COc1ccc(CNC(=O)NC2CC3(C2)CN(C(=O)Cc2ccccc2OC)C3)cc1` [Compound 40, 1-(4-methoxybenzyl)-3-(2-(2-(2-methoxyphenyl)acetyl)-2-azaspiro[3.3]heptan-6-yl)urea]: under setting [1], the “AC1.4 Human” value was 17.2 µM. The EC50 under setting [2] is 24 µM.

Regarding `CC(C)(C)OC(=O)NC1CC2(CC(NC(=O)NCc3cn[nH]c3)C2)C1` (centres unmarked) [Compound 10, tert-butyl (6-(3-((1H-pyrazol-4-yl)methyl)ureido)spiro[3.3]heptan-2-yl)carbamate], the “AC1.4 Human” value under setting [1] was determined as 5.8 µM. Under setting [2], the EC50 worked out at 50.7 µM.

On to `COc1ccc(CNC(=O)NC2CC3(CC(Cc4ccc(C)nc4)C3)C2)cc1` (centres unmarked) [Compound 337, 1-(4-methoxybenzyl)-3-(6-((6-methylpyridin-3-yl)methyl)spiro[3.3]heptan-2-yl)urea], for which the “AC1.4 Human” value under setting [1] was 1.0 µM. Further, the EC50 under setting [2] is 26.1 µM.

The values are drawn from US20230348369A1 (Cytokinetics, Inc., priority 2020, published 2023).
